Assay results taken from publication PMC4077696 (PLoS Biology, 2014).
Entries after “also recorded” stand apart in the source; their conditions may differ. Structures can show the parent of a compound that is named as a salt.

Columns and labels:
PfPMV = PfPMV (Plasmodium falciparum, UniProt Q8I6Z5); experiment: PEXEL cleavage assay with immunopurified PfPMVHA and fluorogenic KAHRP PEXEL peptide; format: biochemical
Protocol: To investigate PvPMVHA activity, we affinity purified it, as well as the PfPMVHA control, using anti-HA agarose, as previously described,[18]. […] The proteins were incubated with a fluorogenic peptide of nine amino acids that contained the PEXEL sequence from knob-associated histidine-rich protein (KAHRP), and efficient processing was observed by both enzymes (Figure 1E). Cleavage of KAHRP by PfPMVHA was previously shown to occur after Leu (RTL↓) by mass spectrometry, and this position was also confirmed for PvPMVHA (Figure S2B–E). […] In contrast, no processing was observed when the PEXEL Arg and Leu residues were mutated to Ala (ATAAQ), consistent with the substrate specificity of PfPMV (Figure 1E). To verify that processing was due to HA-tagged PMV rather than other co-precipitated proteases, we expressed in P. falciparum a mutant of PvPMVHA or PfPMVHA [13], where one or both catalytic Asp residues were mutated to Ala (see Figure 1A,B). Following affinity purification, the mutant enzymes were incubated with KAHRP PEXEL peptides, but no processing was observed (Figure 1E; blue, white), confirming that the PEXEL-dependent cleavage activity observed for each protease was attributable only to HA-tagged PMV.
Each compound was incubated with PfPMVHA in the presence of KAHRP PEXEL peptides.
PMV-agarose was prepared by adding α-HA-agarose (Sapphire Bioscience) to parasite lysates, prepared by sonication in 1% Triton X-100/PBS, for 1 h before extensive washing in same,[13]. PEXEL cleavage assays (20 µl total volume) consisted of 0.2 µl PMV-agarose in digest buffer (25 mM Tris, 25 mM MES, pH 6.4) with 1.5 µM FRET peptide substrate (DABCYL-[…]-E-EDANS, DABCYL-[…]-E-EDANS, LifeTein; DABCYL-[…]-E-EDANS, DABCYL-[…]-E-EDANS; Mimotopes) ± inhibitor. Samples were excited at 340 nm and fluorescence emission measured at 492 nm using an Envision fluorescence plate reader (Perkin-Elmer) heated to 37°C for 150 min. Samples were shaken between measurements. For determination of the peptide cleavage position by PvPMVHA, the fluorogenic peptide (DABCYL-[…]-E-EDANS), representing the wild-type KAHRP PEXEL sequence, was incubated with and without PvPMVHA at 37°C for 48 h. Products of the incubation were detected by a molecular formula algorithm using an Agilent 6200 TOF/6500 series mass spectrometer.

HEpG2 cells = experiment: Toxicity against human HEpG2 cells; format: cell-based; settings: toxicity against human cell line
[1] = tested on: Human Foreskin Fibroblasts (HFF); experiment: Toxicity against Human Foreskin Fibroblasts; format: cell-based; settings: Fibroblast
signal peptidase = experiment: Signal peptide cleavage of SERA5s-GFP in parasites by immunoblot; format: cell-based, Plasmodium falciparum; settings: for Signal peptide cleavage of SERA5s-GFP, in words: 20 µM for 5 h
Protocol: This protein contains a signal peptide but lacks a PEXEL and is efficiently secreted to the parasitophorous vacuole (Figure S3B).
Trophozoites (30–34 h) expressing PfEMP3-GFP, KAHRP-GFP, or SERA5s-GFP were magnet-purified (Miltenyi Biotech), incubated with inhibitors in 400 µl total volume at 37°C for 1–5 h, treated with 0.09% saponin containing inhibitor, and washed pellets were solubilized in Laemmli's buffer, boiled for 3 min, and frozen at −20°C. Proteins were separated by SDS-PAGE, transferred to nitrocellulose and blocked in 10% skim milk/PBS-T, and probed with rat α-HA (Roche 3F10; 1∶1,000), mouse α-GFP (Roche; 1∶1,000), rabbit α-Aldolase (1∶1,000), rabbit α-HSP70 (1∶4,000), rabbit α-PfPMV (1∶1,000), or rabbit α-Hyp8 (1∶500) primary antibodies followed by horseradish peroxidase-conjugated secondary antibodies (Silenius) and detected by enhanced chemiluminescence (Amersham).

[2] = tested on: PfEMP1 surface expression, CS2-GFP parasites; experiment: PfEMP1 (VAR2CSA) surface display on infected erythrocytes by flow cytometry with PAM1.4; format: cell-based, Plasmodium falciparum; settings: 15 µM 23 h or 50>15 µM
Protocol: As 916 treatment has adverse affects on parasites after 24 h, a sublethal dosing regime was developed (see Figure S7) to maximize the inhibitor effect while ensuring parasites remained viable 24 h postinvasion when surface-exposed PfEMP1 was measured. Treatment with >15 µM for 23 h or with 50 µM for >12 h postinvasion prior to decreasing to 15 µM adversely affected parasite growth and was avoided.
To measure PfEMP1 display, highly synchronous ring-stage CS2-GFP parasites preferentially expressing VAR2CSA (see Plasmids, Parasites, and Antibody Production) were obtained by incubation of erythrocytes with viable merozoites for 15 min [47], and parasites were treated with 916, 025, or DMSO using the dosage regime above. […] Labeled cells were washed with 0.1% casein/PBS and analyzed on a FACSCalibur cytometer (Becton-Dickinson, USA). Fluorescence in channel FL1 was used to measure parasite-infected erythrocytes (GFP), and fluorescence in channel FL4 was used to measure bound PAM1.4 IgG antibodies (Alexa 633) for each sample. The geometric mean fluorescence of uninfected erythrocytes (treated with secondary and tertiary but not primary antibodies) was deducted from the geometric mean fluorescence of infected erythrocytes using >100,000 cells per condition. […]

[3] = tested on: cytoadherence of infected erythrocytes to CSA; experiment: Static adhesion of infected erythrocytes to chondroitin sulfate A (CSA); format: cell-based, Plasmodium falciparum; settings: static conditions
Protocol: Adhesion assays were performed as described previously,[33]. Briefly, CSA (Sigma) was spotted at 50 µg/ml in triplicate into petri dishes, incubated overnight at 4°C, and blocked in 1% casein/PBS for 2 h. Inhibitor-treated erythrocytes were added to CSA-coated dishes and incubated for 45 min at 37°C. Dishes were washed four times with 5 ml warm RPMI-HEPES, fixed in 2% paraformaldehyde for 2 h, stained with 10% Giemsa for 15 min, and the number of adherent erythrocytes per mm^2 quantified by light microscopy counts. Assays were performed in triplicate.

PfPMV, sequence (Q8I6Z5 34-590): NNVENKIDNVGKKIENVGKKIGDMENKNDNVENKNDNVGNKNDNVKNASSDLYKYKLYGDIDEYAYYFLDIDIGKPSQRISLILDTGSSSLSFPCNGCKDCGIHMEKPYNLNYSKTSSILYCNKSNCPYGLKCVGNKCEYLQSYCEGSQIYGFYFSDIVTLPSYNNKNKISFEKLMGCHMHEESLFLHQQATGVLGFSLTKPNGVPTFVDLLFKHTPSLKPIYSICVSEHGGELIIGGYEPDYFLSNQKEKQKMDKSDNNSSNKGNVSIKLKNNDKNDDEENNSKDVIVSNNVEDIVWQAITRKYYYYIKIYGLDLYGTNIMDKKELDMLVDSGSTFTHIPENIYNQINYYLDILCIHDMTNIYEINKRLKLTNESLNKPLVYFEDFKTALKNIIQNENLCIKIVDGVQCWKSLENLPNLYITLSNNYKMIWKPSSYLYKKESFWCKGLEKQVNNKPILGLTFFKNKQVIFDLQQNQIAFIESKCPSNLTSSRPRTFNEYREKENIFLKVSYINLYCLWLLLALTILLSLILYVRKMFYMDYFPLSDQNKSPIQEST

SMILES | IC50 (PfPMV; IC50 PfPMV, PfPMVHA) | IC50 (HEpG2 cells) | IC50 [1] | Signal peptide cleavage of SERA5s-GFP, in words (signal peptidase) | Effect on PMV or signal peptidase activity in parasites, in words (signal peptidase; concentrations up to 50 µM) | Effect on PfEMP1 surface expression, in words [2] | Effect on adhesion to CSA, in words [3] | IC50 (PfPMV; IC50 PfPMVHA, PEXEL cleavage) | Decrease of PfEMP1 surface expression ([2]; 24 h postinvasion) | Reduction of adhesion to CSA ([3]; compared to DMSO)
CC[C@H](C)[C@H](NC(=O)[C@@H](NC(=O)[C@H](CCCNC(=N)N)NS(=O)(=O)Cc1ccccc1)C(C)C)[C@@H](O)CC(=O)NCCc1ccccc1 [compound 025, PhCH2SO2Arg-Val-AHMHpA-NH(CH2)2Ph . TFA] | 1.11 µM | > 100 µM | > 100 µM | no defect | no affect | no effect | no effect | – | – | –
CC(C)C[C@H](NC(=O)[C@@H](NC(=O)[C@H](CCCNC(=N)N)NS(=O)(=O)Cc1ccccc1)C(C)C)[C@@H](O)CC(=O)NCCc1ccccc1 [compound 916, PhCH2SO2-Arg(NH2)-Val-Sta-NH(CH2)2Ph .TFA] | – | > 100 µM | > 100 µM | no defect; also recorded: did not impair processing of the signal peptide | – | – | – | 0.02 µM | up to 55% | ~50%
